According to patent US20140314746A1, “METHODS FOR TREATING OR PREVENTING FIBROSIS IN SUBJECTS AFFLICTED WITH SCLERODERMA” (Philadelphia Health and Education Corporation, d/b/a Drexel …, priority 2013, published 2014):

Experiments:
SSc fibroblasts = assay: Hydroxyproline secretion by SSc fibroblasts treated with glyburide or parthenolide; settings: 100 μM glyburide or 10 μM parthenolide; media of 24 h and further 24 h
Procedure: SSc fibroblasts were cultured in 5 ml of media with 100 μM glyburide (G) or 10 μM parthenolide (P). After 24 h the media was collected and the fibroblasts given an additional 5 ml of media with 100 μM glyburide or 10 μM parthenolide and cultured for a further 24 h. Media from both time points was assayed for hydroxyproline. Three independent experiments were performed in and assayed in triplicate. Data is presented as means±SEM. G=glyburide, P=parthenolide.
SSc fibroblasts were treated for 24 h with 100 μM Glyburide or 10 μM Parthenolide. The media was replaced with fresh after 24 h with 100 μM Glyburide or 10 μM Parthenolide and cultured for an additional 24 h. The culture media was assayed for hydroxyproline.

interleukin-1β = settings: cited from earlier work
SSc lung fibroblasts [1] = assay: Hydroxyproline (total collagen) secretion by SSc lung fibroblasts; type: cell-based, human; settings: 20 μM inhibitor, 48 h, untreated 216.1±18.5
Procedure: (§1) Normal human dermal fibroblasts (n=4) were purchased from the Coriell Institute (Camden, N.J.) and normal lung fibroblasts (n=3) were obtained from the University of Pittsburgh. Normal and SSc dermal fibroblasts (750,000 cells/dish) were cultured in DMEM (Mediatech Inc., Manassas Va.) supplemented with 10% FBS (Mediatech) and 1% penicillin/streptomycin (Mediatech). Protein lysates were collected for western blotting and media was collected for ELISA and hydroxyproline assays. SSc fibroblasts were treated with 20 μM caspase-1 inhibitor, Benzyloxycarbonyl-Tyr-Val-Ala-Asp(OMe)-fluoromethylketone (Z-YVAD(OMe)-FMK; Enzo Life Sciences, Plymouth Meeting Pa.) for 48 h. Fibroblasts from NLRP3−/−, and ASC−/− and C57BL/6 mice (Jackson Laboratories, Bar Harbor Me.) were established from skin and were treated with 1 μM bleomycin and 20 μM Z-YVAD(OMe)-FMK for 48 h.
(§2) Total collagen secreted into media was measured by hydroxyproline (Woessner, 1961, Arch Biochem Biophys 93:440-7). Absorbances were read in a spectrophotometer at 550 nm and the concentration of hydroxyproline was determined against a standard curve of hydroxyproline.

SSc dermal fibroblasts [2] = assay: Western blot of secreted COL1A1 and COL3A1, SSc dermal fibroblasts; type: cell-based, human; settings: 48 h
Procedure: as §1
(§3) 30 μl of media was size fractionated on a 5% SDS polyacrylamide gel (Invitrogen, Carlsbad Calif.) and the proteins transferred to a PVDF membrane (Invitrogen). Non-specific binding sites were blocked and then probed with rabbit-anti-human COL1A1, COL3A1, or α-SMA (Santa Cruz Biotechnologies, Santa Cruz Calif.) overnight at 4° C. The membrane was washed and incubated with goat anti-rabbit-HRP (1:5000) (Jackson Immunoresearch, West Grove Pa.). […] The intensity of the bands was measured by ImageJ (http://rsbweb dot nih dot gov/ij/).

SSc dermal fibroblasts [3] = assay: Hydroxyproline (total collagen) secretion by SSc dermal fibroblasts; type: cell-based, human; settings: 20 μM inhibitor, 48 h, untreated 18.73±2.33
Procedure: as §1, §2
(§4) 80% confluent fibroblasts were cultured in serum free Opti-MEM and transfected with siRNA targeting caspase-1 (Santa Cruz) for 48 h, with an additional transfection of the siRNA duplex after 24 h. […]

[4] = test system: SSc dermal myofibroblasts; assay: Immunofluorescence of α-SMA and f-actin in SSc dermal myofibroblasts; type: cell-based, human; settings: 48 h
Procedure: SSc dermal fibroblasts were cultured in chamber slides to 80% confluency and treated with Z-YVAD(OMe)-FMK for 48 h, air dried then fixed with 4% paraformaldehyde for 20 min. Slides were washed with 1×PBS and blocked with 5% goat serum. Primary antibody to α-SMA (1:100, Clone #1A4, Abcam, Cambridge Mass.) and applied to the cells for 40 min, then washed in PBS. Cy2-conjugated goat-anti-mouse (1:200, Jackson ImmunoResearch, West Grove Pa.) was applied to the cells for 40 min, and then washed. Rhodamine phalloidin (1:100, Cytoskeleton, Denver Colo.) was applied to the cells for 15 min, then the cells were washed with PBS, counterstained with DaPI (Invitrogen), visualized with a Nikon Eclipse 80i epi-fluorescent microscope, and photographed at 400× magnification. All images (red for f-actin, green for α-SMA, and triple for simultaneous detection of f-actin, α-SMA and nuclei) were captured at 6 sec, Gain=2, Gamma=0.5.

fibroblasts = type: cell-based
Procedure: as §1

SSc dermal fibroblasts [5] = assay: IL-1β secretion by SSc dermal fibroblasts (ELISA of media); type: cell-based, human; settings: SSc dermal fibroblasts (n=4), 20 μM inhibitor, 48 h, untreated 41.1±5.6
Procedure: as §1
(§5) Media from SSc and normal fibroblasts were assayed by ELISA for IL-1β (Thermo Scientific, Rockford Ill.) and IL-18 (MBL, Woburn Mass.) according to the manufacturer's recommendations. […] The sensitivity of the IL-1β ELISA was 2.6 pg/ml and the sensitivity of the IL-18 was 12 pg/ml.
as §4

SSc lung fibroblasts [6] = assay: Western blot of secreted COL1A1 and COL3A1, SSc lung fibroblasts; type: cell-based, human; settings: 48 h
Procedure: as §1, §3

mouse dermal fibroblasts = assay: Hydroxyproline secretion by mouse dermal fibroblasts stimulated with bleomycin; type: cell-based; settings: for hydroxyproline secreted: 48 h
Procedure: as §1, §2

SSc lung fibroblasts [7] = assay: IL-1β secretion by SSc lung fibroblasts (ELISA of media); type: cell-based, human; settings: SSc lung fibroblasts (n=3), 20 μM inhibitor, 48 h; untreated 19.7±0.4
Procedure: as §1, §5

SSc dermal fibroblasts [8] = assay: IL-18 secretion by SSc dermal fibroblasts (ELISA of media); type: cell-based, human; settings: SSc dermal fibroblasts (n=4), 20 μM inhibitor, 48 h; untreated 23.9±1.0
Procedure: as §1, §5, §4

SSc dermal fibroblasts [9] = assay: Western blot of α-SMA in SSc dermal fibroblasts; type: cell-based, human; settings: 48 h
Procedure: 30 μl of media was size fractionated on a 5% SDS polyacrylamide gel (Invitrogen, Carlsbad Calif.) and the proteins transferred to a PVDF membrane (Invitrogen). Non-specific binding sites were blocked and then probed with rabbit-anti-human COL1A1, COL3A1, or α-SMA (Santa Cruz Biotechnologies, Santa Cruz Calif.) overnight at 4° C. The membrane was washed and incubated with goat anti-rabbit-HRP (1:5000) (Jackson Immunoresearch, West Grove Pa.). The HRP signal was developed with SuperSignal Chemiluminescent Substrate (Pierce). The intensity of the bands was measured by ImageJ (http://rsbweb dot nih dot gov/ij/).
80% confluent fibroblasts were cultured in serum free Opti-MEM and transfected with siRNA targeting caspase-1 (Santa Cruz) for 48 h, with an additional transfection of the siRNA duplex after 24 h. Cells were harvested for protein for Western blotting and the media was saved for hydroxyproline and IL-1β and IL-18 measurements and cells were lysed for α-SMA detection.

SSc lung fibroblasts [10] = assay: IL-18 secretion by SSc lung fibroblasts (ELISA of media); type: cell-based, human; settings: SSc lung fibroblasts (n=3), 20 μM inhibitor, 48 h; untreated 743.9±6.4
Procedure: as §1, §5

[11] = test system: other members of the interleukin-1 family, including interleukin-1 alpha; settings: cited from earlier work
[12] = test system: mouse models of acute gout; settings: in vivo; cited from earlier work
[13] = test system: C57Bl/6, NLRP3−/− and ASC−/− mice; assay: Murine bleomycin-induced model of fibrosis (skin thickness, lung pathology); type: in vivo, mouse
Procedure: All animals were housed in the University Laboratory Animal facility and fed ad libitum. Pathogen free C57Bl/6 mice (n=7) were purchased from Jackson Laboratories. […] Seven untreated C57BL/6 mice were assessed for skin thickness and lung pathology. Dermal fibrosis was induced by daily subcutaneous administration of 100 μl of a 1 mg/ml of bleomycin (BioMol, Plymouth Meeting Pa.) in the flank for 28 days. At the same time 100 μl sterile PBS was administered by subcutaneous injection in the contralateral flank of the same mouse according to the method of Yamamoto et al. (Yamamoto et al., 1999, J Invest Dermatol 112:456-62). Mice were euthanized and tissue from both injection sites was harvested, along with lung tissue. Tissues were fixed, embedded in paraffin, and sectioned onto positively charged slides, then stained with Masson's Trichrome and photographed. Collagen was measured in the skin from just below the epidermis to the fat layer. Two images were taken at 100× magnification. Six measurements were taken for each image using the Advanced SpotCam software and expressed as skin thickness in microns±SEM and fold change in skin thickness.

## COc1ccc(Cl)cc1C(=O)NCCc1ccc(S(=O)(=O)NC(=O)NC2CCCCC2)cc1 [Glyburide, 5-chloro-N-(4-[N-(cyclohexylcarbamoyl)sulfamoyl]phenethyl)-2-methoxybenzamide]
SSc fibroblasts
  hydroxyproline secretion by SSc fibroblasts: significantly reduce

## CSc1ccc(-c2nn(Cc3ccccc3)c(=O)cc2-c2ccc(Cl)cc2)cc1 [K-832, 2-benzyl-5-(4-chlorophenyl)-6-[4-(methylthio)phenyl]-2H-pyridazin-3-one]
interleukin-1β
  inhibitory activity against production of interleukin-1β: high inhibitory activity

## COC(=O)C[C@H](NC(=O)[C@H](C)NC(=O)[C@@H](NC(=O)[C@H](Cc1ccc(O)cc1)NC(=O)OCc1ccccc1)C(C)C)C(=O)CF [Z-YVAD(OMe)-FMK, Benzyloxycarbonyl-Tyr-Val-Ala-Asp(OMe)-fluoromethylketone]
SSc lung fibroblasts [1]
  hydroxyproline secreted: 132.0 ± 22.8 µg/mL
SSc dermal fibroblasts [2]; untreated 11.4±1.3 AU
  Secreted COL1A1 protein (densitometry): 8.9±1.0 AU
SSc dermal fibroblasts [2]; untreated 14.7±3.1 AU
  COL3A1 protein (densitometry): 8.6±2.5 AU
SSc dermal fibroblasts [3]
  hydroxyproline secreted: 5.19 ± 0.94 µg/mL
[4]; SSc dermal cells, untreated 37.8±3.09
  F-actin MFI: 39.6±2.9 MFI
[4]; SSc dermal myofibroblasts
  F-actin staining: unaffected
[4]; SSc dermal myofibroblasts, untreated 1.03±0.05
  Mean fluorescent intensity (MFI) of α-SMA after correction for f-actin MFI: 0.68±0.04
[4]; SSc dermal myofibroblasts, untreated 38.9±2.4
  Mean fluorescent intensity of α-SMA: 27.6±2.5
fibroblasts
  apoptosis: did not interfere with cell proliferation or induce apoptosis
SSc dermal fibroblasts [5]
  IL-1β secreted: 12.0 ± 1.6 pg/mL
SSc dermal fibroblasts [5]; listed as YVAD
  IL-1β secreted: 12.0 pg/mL
SSc lung fibroblasts [6]; p=0.051
  COL1A1 secretion: trend for the reduction
SSc lung fibroblasts [6]; untreated 12.3±3.8 AU
  COL3A1 protein (densitometry): 5.5±1.2 AU
Mouse dermal fibroblasts; C57BL/6 fibroblasts, 1 μM bleomycin plus 20 μM inhibitor
  hydroxyproline secreted: 5.9 ± 0.7 µg/mL
SSc lung fibroblasts [7]
  IL-1β secreted: 7.2 ± 0.2 pg/mL
SSc dermal fibroblasts [8]
  IL-18 secreted: 15.2 ± 1.5 pg/mL
SSc dermal fibroblasts [9]; after normalization for β-actin
  Decrease of α-smooth muscle actin by Western: approximately 50%
SSc dermal fibroblasts [9]; untreated 1.07±0.15
  α-SMA protein by Western, normalized for β-actin loading: 0.54±0.14
SSc lung fibroblasts [10]
  IL-18 secreted: 311.6 ± 18.5 pg/mL

## Canakinumab: a human monoclonal antibody targeted at interleukin-1 beta
[11]
  cross-reactivity with other members of the interleukin-1 family: no cross-reactivity

## XOMA-052: a potent anti-IL-1β humanized neutralizing antibody
[12]
  activity in mouse models of acute gout: active

## bleomycin
[13]; ASC−/− mice, bleomycin vs PBS injected skin
  fold induction of skin thickness: 1.06 fold
[13]; C57Bl/6 mice, bleomycin 100 μg daily s.c. 28 days, PBS injected skin 320.7±40.6
  average skin thickness: 504.4±66.7 microns
[13]; C57Bl/6 mice, bleomycin vs PBS injected skin
  fold increase in skin thickness: 1.54±0.11 fold
[13]; NLRP3−/− mice, bleomycin vs PBS injected skin
  fold induction of skin thickness: 1.10 fold
[13]; wild-type C57Bl/6 mice, bleomycin s.c. 28 days
  lung pathology: developed extensive pulmonary fibrosis
Mouse dermal fibroblasts; ASC−/− and NLRP3−/− fibroblasts, 1 μM bleomycin, p>0.43
  hydroxyproline secretion: not induced
Mouse dermal fibroblasts; C57BL/6 fibroblasts stimulated with 1 μM bleomycin, unstimulated 10.6±3.8
  hydroxyproline secreted: 42.8 ± 2.9 µg/mL
